PubChem BioAssay AID179 (DTP/NCI, 2004)
Activity calls are given as the source filed them.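 The calls were made as follows: active = compounds giving half or more protection of infected cells from virus-caused growth loss, again on retest; inactive = the rest.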

System: CEM cells HIV-1 protection, formazan growth assay
Assay: NCI AIDS Antiviral Assay
Conditions: for IC50: measured here: growth of uninfected CEM cells
Method in brief: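 CEM (human) cells, HIV-1 infected vs uninfected, 5-point dosing, formazan growth read-out. Retest threshold 50% protection.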

Compound	EC50	IC50	outcome
CC(C)CCC[C@@H](C)[C@H]1CC[C@H]2[C@@H]3CC[C@H]4C[C@@H](CCC=C(c5cc(Cl)c(OCc6ccc(C(=O)O)cc6)c(C(=O)O)c5)c5cc(Cl)c(OCc6ccc(C(=O)O)cc6)c(C(=O)O)c5)CC[C@]4(C)[C@H]3CC[C@]12C	2.51 µM	50.1 µM	
CCOC(=O)c1nc2ccccc2nc1Oc1ccc(C#N)cc1	> 200 µM	> 200 µM	
CC1CCCCCC(=O)c2c(O)cc(O)cc2CC(=O)O1 (configuration not stated)	> 851 µM	117 µM	
CN1CCC2(CC1)OC(c1ccccc1)C(c1ccccc1)O2 (configuration not stated)	> 200 µM	115 µM	
Cc1cc(O)c(C(C)C)cc1NC(=O)Nc1cccc2ccccc12	> 56.2 µM	40.7 µM	
COc1cc(/C=C2\CCOC2=O)ccc1OCc1ccccc1	> 32.4 µM	> 32.4 µM	
N=c1c2c3n(c4c(=O)n(-c5ccccc5)c(=S)n(c(=O)n1-c1ccccc1)c24)CCCCC3	> 100 µM	> 100 µM	
CSc1nc(-c2ccccc2)nc(=[N+]2CCOCC2)s1	> 417 µM	234 µM	
CC1(C)COC(c2ccccc2Cl)N1 (configuration not stated)			inactive
Cc1nn(C(=O)c2ccc(Cl)cc2)c2c1C(c1ccccc1O)SC(N)=N2 (configuration not stated)	> 200 µM	107 µM	
C[Si](C)(C)/C=C\CCNCc1ccccc1	> 776 µM	> 776 µM	
Cc1ccc2cc(-c3ccccc3)c3ccc(C)nc3c2n1.Cc1ccc2cc(-c3ccccc3)c3ccc(C)nc3c2n1.O=C1OC(C(O)C[O-])C(O)=C1O.[Cu+]	> 25.1 µM	1.29 µM	
Cc1nc(N)nc(N)c1N1CCN(c2ccc(C#N)cc2)CC1	> 100 µM	> 100 µM	
CC(C)CCCC(C)[C@H]1CC[C@H]2[C@H]3CC[C@H]4C[C@@H](CCC=C(c5cc(Cl)c(O)c(C(=O)O)c5)c5cc(Cl)c(O)c(C(=O)O)c5)CC[C@]4(C)[C@H]3CC[C@]12C (some centres not stated)	> 200 µM	> 200 µM	
CCOC(=O)c1ncn(CCc2ccc(Cl)cc2)c1C	> 200 µM	> 100 µM	
CCc1cccc(CC)c1NC(=O)C(C#N)C1=C(Cl)C(=O)c2ccccc2C1=O (configuration not stated)	> 17.8 µM	11.5 µM	
CC(C)C(=O)Nc1nc2nc[nH]c2c(=O)[nH]1	> 85.1 µM	> 85.1 µM	
O=C(CCn1ccnc1[N+](=O)[O-])NCCCn1ccnc1[N+](=O)[O-]	> 200 µM	> 200 µM	
CC(NC(=O)/C(C#N)=C/c1ccc2[nH]ccc2c1)c1ccccc1 (configuration not stated)	> 42.7 µM	> 42.7 µM	
CN(C)P1(=O)OCC(C(C)(C)C)CN1c1ccccc1 (configuration not stated)	> 200 µM	> 200 µM	

Compound	EC50	IC50	outcome
CC(=O)NC(CCCNCc1ccccc1)C(=O)NCc1ccccc1 (configuration not stated)	> 708 µM	> 708 µM	
N#CN=C(N)c1sc2nc3c(c(-c4ccc(Br)cc4)c2c1N)CCCC3	> 200 µM	7.08 µM	
COC(=O)C1CCC(=O)N1C(c1cc(OC)c(OC)c(OC)c1)c1cccc2ccccc12 (configuration not stated)	> 200 µM	83.2 µM	
Cc1ccc(-c2c(C#N)c(-c3ccc(Cl)cc3)c(C#N)c(=O)n2NS(=O)(=O)c2ccccc2)cc1	> 200 µM	29.5 µM	
COc1cc(C(O)c2ccc3c(c2)OCO3)cc(OC)c1OC (configuration not stated)	> 200 µM	87.1 µM	
CC(C)(C)c1ccc(CN2CCN(C(c3ccccc3)c3ccc(Cl)cc3)CC2)cc1 (configuration not stated)	> 200 µM	115 µM	
COc1ccc2c(n1)Sc1nc3ccccc3nc1N2	> 200 µM	24.5 µM	
Cc1c(Cl)ccc2c1NC(=O)C2(O)C(C(=O)c1ccccc1)c1ccccc1 (configuration not stated)	> 66.1 µM	> 66.1 µM	
O=C(NC(Cc1c[nH]c2ccccc12)C(=O)O)/C(=C/c1ccccc1)NC(=O)c1ccccc1 (configuration not stated)	> 200 µM	135 µM	
CCOC(=O)c1ccc(-c2cc(C)[nH]n2)[nH]1	> 200 µM	77.6 µM	
O=[N+]([O-])c1ccc(O)c(/C=N\NC(=S)Nc2ccc(F)cc2)c1	> 77.6 µM	> 77.6 µM	
Cc1c(C)c2ccc(O)cc2[nH]c1=O	> 200 µM	182 µM	
N=c1sc(N2CCOCC2)nn1CC(=O)c1ccccc1	> 200 µM	129 µM	
COC1/C=C\OC2(C)Oc3c(C)c(O)c4c(O)c(c(C=Nc5ccc6ccccc6c5)c(O)c4c3C2=O)NC(=O)/C(C)=C\C=C/C(C)C(O)C(C)C(O)C(C)C(OC(C)=O)C1C (configuration not stated)	> 200 µM	35.5 µM	
O=C1C(Cl)C(c2ccc(Cl)cc2)N1n1cnc2ccccc2c1=O (configuration not stated)	> 18.6 µM	> 18.6 µM	
Cc1ccccc1N=Nc1ccc(N/N=C2/CCCNC2=O)c(C)c1	> 200 µM	182 µM	
CC(C)(C)OC(=O)NC(CSCc1ccc(C(=O)c2ccccc2)cc1)C(=O)O (configuration not stated)	> 200 µM	50.1 µM	
O=[N+]([O-])c1cccc(N=Cc2ccccc2O)c1	> 200 µM	91.2 µM	
CCc1c(O)n(Cc2ccccc2)c(=S)n(Cc2nc3ccccc3[nH]2)c1=O	> 200 µM	> 200 µM	
